Measurements as given in patent publication US10808005B2, “Ligand for orphan nuclear receptor Nur77 and uses thereof” (IXMEDICINE (XIAMEN) BIOLOGICAL TECHNOLOGY COMPANY LIMITED, priority 2016, dated 2020).

Experiments:
[1] = system: IκBα and phosphorylated IKKα/β; assay: Immunoblot of IκBα and phosphorylated IKKα/β in TNFα-treated HepG2 cells; type: cell-based; settings: TNFα 20 ng/mL 30 minutes
Text: IκBα and phosphorylated IKKα/β in the cells were then detected by WB.
In addition, HepG2 cells were also applied in the experiment. […] IκBα in the cells was then detected by WB.

[2] = system: BT474, ZR-75-1, BT549, HCC1937, HS578T, MCF-7, and T47D; assay: Inhibition rate on seven breast cancer cells; type: cell-based; settings: various breast cancer cells, FIG. 11C
[3] = Acute toxicity model mice, histopathology; type: in vivo
Text: The tissue morphologies of the heart, liver, small intestine, white fat and kidney were observed by Histopathological method.

tumors [4] = assay: Tumor inhibition in Nur77-knocked-out PYVT mice; type: in vivo, Nur77-knocked-out type; settings: Nur77-deficient; YXY101 5 mg/kg or XS0284 10 mg/kg intragastric, two weeks
IκBα [5] = assay: Immunoblot of IκBα in Nur77−/−MEF cells; type: cell-based
Text: (§1) The above results were also confirmed by using MEF cells and Nur77−/−MEF cells (i.e., MEF cells not expressing Nur77). […] Subsequently, IκBα in the cells was detected by WB.

breast cancer = assay: PYVT mice under LFD or HFD feeding, intragastric administration; type: in vivo, WT mice and PYVT mice
Text: The above conclusions can be reflected in the size of tumor tissue and the change of body weight of mice.

IκBα [6] = assay: Immunoblot of IκBα in MEF cells; type: cell-based; settings: MEF cells expressing Nur77
Text: as §1

tumors [7] = assay: Tumor inhibition in wild type PYVT mice; type: in vivo; settings: YXY101 5 mg/kg or XS0284 10 mg/kg intragastric, two weeks
mTOR signaling pathway = assay: Immunoblot of p-mTOR, p-P70S6K, p-S6 in TNFα-treated starved MDA-MB-231 cells; type: cell-based
[8] = single intragastric injection 200 mg/kg
[9] = single intraperitoneal injection 20 mg/kg

Structure (SMILES): Cc1c(O)c(O)cc2c1C(S(=O)(=O)[O-])C=C1[C@@]2(C)CC[C@@]2(C)[C@@H]3C[C@](C)(C(=O)O)CC[C@]3(C)CC[C@]12C.[Na+] (stereo partly drawn) [XS0284]
- TNFα-induced degradation of IκBα [1]: capable of inhibiting TNFα-induced degradation of IκBα
- inhibitory effects on proliferation compared with YXY101 [2]: close or even stronger than that of YXY101
- toxic effect compared with YXY101 ([3]; intragastric injection group): weaker toxic effect on the liver and small intestine than YXY101
- toxicity compared with YXY101 ([3]; intraperitoneal injection group): less toxicity to kidney and adipose than YXY101
- acute toxicity to animals compared with YXY101 ([3]; overall): less acute toxicity to animals than YXY101
- adipose tissue morphology [3, 8]: the adipose tissue cells had clear boundaries, and were neatly arranged, and the fiber breakage was reduced
- heart tissue morphology [3, 8]: relatively clear boundaries, the myocardial fibers were arranged relatively neatly and had obvious boundaries
- liver tissue morphology [3, 8]: the hepatocytes in the liver tissue had obvious boundaries and clear structure
- small intestine tissue morphology [3, 8]: the intestinal tissue had clear boundaries, the cells were plump, the intestinal villi were neatly arranged and had obvious boundaries
- adipose tissue morphology [3, 9]: the adipose tissue cells had clear boundaries and were arranged neatly, the fiber breakage was reduced
- heart tissue morphology [3, 9]: relatively clear boundaries, the myocardial fibers were relatively neatly arranged and had obvious boundaries
- kidney tissue morphology [3, 9]: the kidney tissue had clear glomerular boundaries, the cells were full, and there was a small amount of inflammatory cell infiltration
- liver tissue morphology [3, 9]: the hepatocytes in the liver tissue had obvious boundaries and clear structure
- tumor inhibition (tumor tissue size) (tumors [4]): neither of the two compounds could exert an inhibitory effect
- TNFα-induced degradation of IκBα (IκBα [5]): lost the ability to inhibit IκBα degradation
- inhibition effect on breast cancer compared with YXY101 (breast cancer; high-fat feeding conditions): stronger than that of YXY101
- inhibitory effect on breast cancer compared with YXY101 (breast cancer; low-fat feeding conditions): close to that of YXY101
- development of breast cancer (breast cancer; low-fat or high-fat feeding conditions): can significantly inhibit the development of breast cancer
- TNFα-induced degradation of IκBα (IκBα [6]): able to inhibit TNFα-induced degradation of IκBα
- tumor inhibition (tumor tissue size) (tumors [7]): effective in inhibiting tumors in wild-type mice
- inhibitory effect on P-mTOR, P-p70S6K and P—S6 (mTOR signaling pathway): strong inhibitory effect
